The record followed here is patent US20220362394A1, “ANTI-BCMA ANTIBODY CONJUGATES” (SUTRO BIOPHARMA, INC., priority 2019, published 2022).

The assay has as its system MM.1S multiple myeloma cells. The experiment in a line: Disseminated MM.1S multiple myeloma model. It is filed as in vivo, NSG mice. The conditions noted are these: Example 11. As for the experimental part: Female NOD severe combined immune deficient (SCID) gamma (NSG) mice 8-9 weeks of age were inoculated with 5×10^6 multiple myeloma MM.1S cells into the tail vein. Randomization by body weight and start of treatment was initiated 7 days post tumor inoculation. The treatment groups are outlined in Table 18. All investigational test articles were formulated in 10 mM citrate pH 6.0, 10% sucrose. Groups 1-10 (n=6/group) were monitored for survival endpoint characterized by >20% body weight loss and clinical signs including lethargy, hind limb paralysis or moribundity. Groups 11-20 (n=3/group) were used for bone marrow harvest and analysis of tumor burden on day 28 post tumor cell inoculation. For all groups, body weights were monitored 1-2×/week.
Tumor burden was assessed and quantified by detection of hCD138 positive (hCD138+) cells in the bone marrow. Bone marrow cells from mouse femur and tibia were pooled and assessed for human CD138+ expression using the Alexa Fluor 647 mouse anti-human CD138 clone MI15 (BD Biosciences #562097) according to the manufacturer's protocol. […] Data was analyzed using Flowjo (Tree Star, Inc., Ashland, Oreg.).
Mean survival, survival delay, and tumor burden, during and at the study endpoint, were analyzed using a one-way analysis of variance (ANOVA) with Dunnett's multiple comparison test. […]

For `CC(C)C[C@H](NC(=O)[C@H](Cc1ccccc1)NC(=O)c1cnccn1)B(O)O` [Velcade], the mean survival (0.8 mg/kg q7dx2 IP) was 40.6 days.

Turning to “Daratumumab: MM standard of care agent, clinical grade”, for the setting “3 or 10 mg/kg single IP”, the “effect on survival compared to vehicle control” value was “no significant effect on survival”.
